How the values were obtained:
[1] = test system: STZ-induced diabetic neuropathy model rat; test: STZ-induced diabetic neuropathy model rat, von Frey up-down stimulation method, 50% escape response threshold; format: in vivo; conditions: oral, compared with STZ control group
Procedure: As one embodiment, the study was performed by administering the compound of the present invention to an STZ-induced diabetic neuropathy model rat, then giving a stimulus thereto by an up-down stimulation method, and calculating a 50% escape response threshold.
A model was prepared by intravenously administering STZ as a diabetes-inducing substance to a rat. In a test, an animal that had developed diabetic neuropathy 35 days after STZ administration was used.
On the day before administration of STZ and the day before administration of a test substance, about 100 μL of blood was collected from the tail vein using a winged injection needle equipped with a heparin-treated capillary. The obtained blood was centrifuged with a centrifuge [centrifugation conditions: 4° C., 3,000 rpm (×2,150 g), 15 min], and then plasma was obtained. The blood glucose level of the obtained plasma was measured using a hexokinase G-6-PDH method using an automatic biochemical analyzer. Note that the amount of the obtained plasma was very small, and therefore the measurement was performed by diluting the plasma 5 times with physiological saline. […]
35 days after administration of STZ, before administration, a 50% escape response threshold was measured, and the animals were divided into groups each including two animals such that the groups had the same average of escape response thresholds and the same average of body weights (severity of 50% escape response threshold: 8, severity of weight: 2). […]
Pain was evaluated during a pre-breeding period, and 35 days after administration of STZ, before administration of a test substance and one, two, four, and six hours after administration of the test substance. […] From the result, a 50% escape response threshold was calculated by the following method for calculating a 50% escape response threshold (the 50% escape response threshold was rounded off to two decimal places). […]

[2] = test system: rats (SD, male); test: Rota-rod test, effect on motor coordination; format: in vivo, rat; conditions: 60 mg/kg oral once, three hours after administration; for walking duration (time to fall from the rod): 10 rpm, cut-off 120 seconds
Procedure: As an index for studying a central inhibitory effect and a muscle relaxation effect, an effect on motor coordination was studied using a Rota-rod test.
In each of the groups, the number of samples was 8. Before a test, a rotation speed was set to 10 rpm using a mark on a rotating disk of Rota-rod (47700, UGO BASILE S.R.L.). A rat was gently placed on the rotating rod, and it was confirmed that the rat was placed on the rod stably. Thereafter, time (seconds) for the rat to fall from the rod was recorded. A cut-off value was 120 seconds. Trials were performed before administration of a test substance and three hours after the administration. At each measurement time, trials were performed up to three times. In a case where the cut-off value was reached, 120 seconds was taken as a walking duration at the time. In a case where the cut-off value was not reached in all three trials, an average of the three values was taken as a walking duration at the time.

| Compound | 50% escape response threshold ([1]; 3 mg/mL group, two hours and four hours after administration) | 50% escape response threshold ([1]; 10 mg/mL group, one hour to four hours after administration) | 50% escape response threshold ([1]; 30 mg/mL group, one hour to four hours after administration) | effect on motor coordination ([2]; Rota-rod) | walking duration (time to fall from the rod) [2] |
| --- | --- | --- | --- | --- | --- |
| O=C1CC(=O)N(c2ccc(NC(=O)c3ccccc3I)cc2)c2ccc3ccccc3c2N1 [Example 48 (Compound), 5-[4-(2-iodobenzoylamino)phenyl]-1H-naphtho [1,2-b] [1,4]diazepine-2,4 (3H,5H)-dione] | significantly increased | significantly increased | significantly increased | no effect on motor coordination | 120 s |
| CC(C)C[C@H](CN)CC(=O)O [pregabalin, reference compound] |  |  |  |  | 22 ± 5 s |

From patent US12090158B2, “Medicine for diabetic peripheral neuropathy” (NIPPON CHEMIPHAR CO., LTD., priority 2018, dated 2024)
